Patent publication US12215093B2, “Bicyclic carboxamides and methods of use thereof” (Tempest Therapeutics, Inc., priority 2018, dated 2025)
Where two headings read alike, the source gives them in different places.

How the values were obtained:
EP2 [1] = target: T1, EP2 (Homo sapiens, UniProt P43116); test: cell-based;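 further: functional calcium flux assay in stably transfected HEK293 cells expressing EP2 coupled via a promiscuous G protein, clytin luminescence read as area under the curve, 30 min compound preincubation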
T1 sequence (P43116 whole entry): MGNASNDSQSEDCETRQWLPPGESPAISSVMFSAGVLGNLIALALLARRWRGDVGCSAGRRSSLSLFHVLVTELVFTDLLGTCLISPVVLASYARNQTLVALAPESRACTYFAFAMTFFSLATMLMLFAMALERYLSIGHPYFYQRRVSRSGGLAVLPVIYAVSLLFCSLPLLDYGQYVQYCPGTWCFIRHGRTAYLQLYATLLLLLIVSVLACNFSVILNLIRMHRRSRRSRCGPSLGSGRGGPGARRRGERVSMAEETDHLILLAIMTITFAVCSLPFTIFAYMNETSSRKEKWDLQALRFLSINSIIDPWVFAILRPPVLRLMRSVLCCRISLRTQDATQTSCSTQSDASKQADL
Procedure: (§1) Each receptor subtype has an additional promiscuous G protein added in order to couple the aforementioned receptor to the calcium signaling pathway. The parental cell line used also expresses a novel variant of clytin, a calcium-activated photo-protein, to enable sensitive luminescent detection. Briefly, cells were plated at 50,000 cells-per-well in black, clear bottom 96-well plates. The plated cells were allowed to sit at room temperature for 30 min prior to transferring to a humidified, 37° C., 5% CO2 incubator for 18 to 24 h. Assay buffer (HBSS with 20 mM HEPES) and loading buffer (assay buffer plus 10 μM coelenterazine) were prepared on the day of the assay. Assays were performed by aspirating media from the assay plate and washing once with assay buffer, then replacing with loading buffer and allowing the cells to incubate for 1.5 h at room temperature. Compounds were prepared in assay buffer at a 3× final concentration in non-binding plates. Compounds were added to the cell plates and incubated for 30 min at room temperature. The prostanoid receptor ligand PGE2 was prepared at a 4× dilution ratio for a final concentration of 10 nM. Plates were run on a Flexstation™ using a 100 ms integration luminescence protocol for a total of 60 sec with ligand addition at 15 sec. Data were obtained from relative light units as measured by area under the curve.

EP4 = target: T2, EP4 (Homo sapiens, UniProt P35408); test: Functional calcium flux assay, EP4; format: cell-based; settings: stably transfected HEK293 cells; PGE2 10 nM; read-out: EP4 Ca2+-flux assay IC50
T2 construct: host or cells: stably transfected HEK293 cells co-expressing a promiscuous G protein and a clytin variant
T2 sequence (P35408 whole entry): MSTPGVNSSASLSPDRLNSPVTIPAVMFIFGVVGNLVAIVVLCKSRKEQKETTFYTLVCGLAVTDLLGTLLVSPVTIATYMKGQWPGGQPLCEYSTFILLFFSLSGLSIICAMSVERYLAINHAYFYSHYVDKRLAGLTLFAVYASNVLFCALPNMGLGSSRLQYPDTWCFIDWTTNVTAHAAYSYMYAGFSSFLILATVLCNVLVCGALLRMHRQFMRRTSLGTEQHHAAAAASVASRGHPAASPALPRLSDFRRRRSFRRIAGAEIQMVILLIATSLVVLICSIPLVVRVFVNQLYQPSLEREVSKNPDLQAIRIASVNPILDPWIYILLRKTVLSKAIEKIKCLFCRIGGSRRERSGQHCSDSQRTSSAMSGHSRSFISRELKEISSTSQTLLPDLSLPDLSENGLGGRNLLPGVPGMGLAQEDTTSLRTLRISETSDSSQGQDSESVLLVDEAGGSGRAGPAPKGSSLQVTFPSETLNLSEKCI
Procedure: as §1

EP2 [2] = target: T1, EP2
Procedure: as §1

## COc1cccc(-c2ccc(Cn3ccc4c(F)ccc(C(=O)NC5CC6(C5)CC(C(=O)O)C6)c43)cc2)c1 (racemic) [Example 14, (racemic)-6-(4-fluoro-1-((3′-methoxy-[1,1′-biphenyl]-4-yl)methyl)-1H-indole-7-carboxamido)spiro[3.3]heptane-2-carboxylic acid]
EP2 [1]
  IC50: < 25 nM
EP4
  IC50: < 1 nM

## O=C(NC1CC2(C1)CC(C(=O)O)C2)c1ccc(Cl)c2cnn(C3(c4ccc(-c5ccccc5)cc4)COC3)c12 (centres unmarked) [Example 176, (Sa)-6-(1-(3-([1,1′-Biphenyl]-4-yl)oxetan-3-yl)-4-chloro-1H-indazole-7-carboxamido)spiro[3.3]heptane-2-carboxylic acid]
EP2 [1]
  IC50: < 25 nM
EP4
  IC50: 2.9 nM

## [2H]C([2H])([2H])C([2H])(c1ccc(-c2ccccc2)cc1)n1ncc2cccc(C(=O)NC3CC4(C3)CC(C(=O)O)C4)c21 (single isomer, unassigned) [Example 169, (Sa)-6-(1-((R) or (S)-1-([1,1′-Biphenyl]-4-yl)ethyl-1,2,2,2-d4)-1H-indazole-7-carboxamido)spiro[3.3]heptane-2-carboxylic acid]
EP2 [1]
  IC50: 63 nM
EP4
  IC50: 1.5 nM

## O=C(NC1CC2(C1)CC(C(=O)O)C2)c1ccc(F)c2ccn(Cc3ccc(N4CCOCC4)cc3)c12 (racemic) [Example 31, (racemic)-6-(4-Fluoro-1-(4-morpholinobenzyl)-1H-indole-7-carboxamido)spiro[3.3]heptane-2-carboxylic acid]
EP2 [1]
  IC50: 44 nM
EP4
  IC50: < 1 nM

## CC(C)(C)c1ccc(Cn2ccc3c(Cl)ccc(C(=O)NC4CC5(C4)CC(C(=O)O)C5)c32)cc1 (racemic) [Example 7, (racemic)-6-(1-(4-(tert-Butyl)benzyl)-4-chloro-1H-indole-7-carboxamido)spiro[3.3]heptane-2-carboxylic acid]
EP2 [1]
  IC50: < 25 nM
EP4
  IC50: < 1 nM

## O=C(NC1CC2(C1)CC(C(=O)O)C2)c1ccc(F)c2ccn(Cc3ccc(-c4ccccc4)cc3F)c12 (centres unmarked) [Example 66, (Sa)-6-(4-Fluoro-1-((3-fluoro-[1,1′-biphenyl]-4-yl)methyl)-1H-indole-7-carboxamido)spiro[3.3]heptane-2-carboxylic acid]
EP2 [1]
  IC50: < 25 nM
EP4
  IC50: < 1 nM

## COc1cc(-c2ccc(Cn3ccc4c(F)ccc(C(=O)NC5CC6(C5)CC(C(=O)O)C6)c43)cc2)ccc1F (racemic) [Example 19, (racemic)-6-(4-fluoro-1-((4′-fluoro-3′-methoxy-[1,1′-biphenyl]-4-yl)methyl)-1H-indole-7-carboxamido)spiro[3.3]heptane-2-carboxylic acid]
EP2 [1]
  IC50: < 25 nM
EP4
  IC50: < 1 nM

## O=C(NC1CC2(C1)CC(C(=O)O)C2)c1cccc2cnn(Cc3ccc(OC(F)(F)F)cc3)c12 (racemic) [Example 32, (racemic)-6-(1-(4-(Trifluoromethoxy)benzyl)-1H-indazole-7-carboxamido)spiro[3.3]heptane-2-carboxylic acid]
EP2 [1]
  IC50: < 25 nM
EP4
  IC50: < 1 nM

## O=C(NC1CC2(C1)CC(C(=O)O)C2)c1ccc(F)c2ccn(Cc3ccc(OC(F)(F)F)cc3)c12 (racemic) [Example 1, (racemic)-6-(4-Fluoro-1-(4-(trifluoromethoxy)benzyl)-1H-indole-7-carboxamido)spiro[3.3]heptane-2-carboxylic acid]
EP2 [1]
  IC50: 34 nM
EP4
  IC50: < 1 nM

## O=C(NC1CC2(C1)CC(C(=O)O)C2)c1ccc(F)c2ccn(Cc3ccc(-c4ccc(OC5COC5)cc4)cc3)c12 (racemic) [Example 23, (racemic)-6-(4-Fluoro-1-((4′-(oxetan-3-yloxy)-[1,1′-biphenyl]-4-yl)methyl)-1H-indole-7-carboxamido)spiro[3.3]heptane-2-carboxylic acid]
EP2 [1]
  IC50: 60 nM
EP4
  IC50: 1 nM

## O=C(NC1CC2(C1)CC(C(=O)O)C2)c1cccc2cnn(Cc3ccc(-c4ccccc4)cc3)c12 (racemic) [Example 33, (racemic)-6-(1-([1,1′-biphenyl]-4-ylmethyl)-1H-indazole-7-carboxamido)spiro[3.3]heptane-2-carboxylic acid]
EP2 [1]
  IC50: < 25 nM
EP4
  IC50: 3 nM

## CC(c1ccc(-c2ccccc2)cc1)n1ncc2cccc(C(=O)NC3CC4(C3)CC(C(=O)O)C4)c21 (racemic) [Example 112, (Sa)-6-(1-((racemic)-1-([1,1′-Biphenyl]-4-yl)-ethyl)-1H-indazole-7-carboxamido)spiro[3.3]heptane-2-carboxylic acid]
EP2 [1]
  IC50: < 25 nM
EP4
  IC50: 1.8 nM

## N#Cc1cccc(-c2ccc(Cn3ccc4c(F)ccc(C(=O)NC5CC6(C5)CC(C(=O)O)C6)c43)cc2)c1 (racemic) [Example 15, (racemic)-6-(1-((3′-cyano-[1,1′-biphenyl]-4-yl)methyl)-4-fluoro-1H-indole-7-carboxamido)spiro[3.3]heptane-2-carboxylic acid]
EP2 [1]
  IC50: < 25 nM
EP4
  IC50: < 1 nM

## CCOc1cc(-c2ccc(Cn3ccc4c(F)ccc(C(=O)NC5CC6(C5)CC(C(=O)O)C6)c43)cc2)ccn1 (racemic) [Example 36, (Racemic)-6-(1-(4-(2-ethoxypyridin-4-yl)benzyl)-4-fluoro-1H-indole-7-carboxamido)spiro[3.3]heptane-2-carboxylic acid]
EP2 [1]
  IC50: 72 nM
EP4
  IC50: < 1 nM

## COc1ccc2cc(-c3ccc(Cn4ccc5c(F)ccc(C(=O)NC6CC7(CC(CC(=O)O)C7)C6)c54)cc3)ccc2n1 (single isomer, unassigned) [Example 140, (Ra)-2-(6-(4-Fluoro-1-(4-(2-methoxyquinolin-6-yl)benzyl)-1H-indole-7-carboxamido)spiro[3.3]heptan-2-yl)acetic acid]
EP2 [1]
  IC50: < 25 nM
EP4
  IC50: < 1 nM

## COc1cc(C#N)cc(-c2ccc(C(C)n3ncc4cccc(C(=O)NC5CC6(C5)CC(C(=O)O)C6)c43)cc2)c1 (racemic) [Example 114, (Sa)-6-(1-((racemic)-1-(3′-cyano-5′-methoxy-[1,1′-biphenyl]-4-yl)-ethyl)-1H-indazole-7-carboxamido)spiro[3.3]heptane-2-carboxylic acid]
EP2 [2]
  IC50: 57 nM
EP4
  IC50: 5.5 nM

## O=C(O)CC1CC2(C1)CC(NC(=O)c1ccc(OC(F)F)c3cnn(Cc4ccc(-c5ccccc5)cc4)c13)C2 (centres unmarked) [Example 162, (Ra)-2-(6-(1-([1,1′-Biphenyl]-4-ylmethyl)-4-(difluoromethoxy)-1H-indazole-7-carboxamido)spiro[3.3]heptan-2-yl)acetic acid]
EP2 [2]
  IC50: 52 nM
EP4
  IC50: 1.2 nM

## CCOc1cc(-c2ccc(C(C)n3ncc4c(Cl)ccc(C(=O)NC5CC6(C5)CC(C(=O)O)C6)c43)cc2)ccn1 (single isomer, unassigned) [Example 131, (Sa)-6-(4-chloro-1-((R) or (S)-1-(4-(2-ethoxypyridin-4-yl)phenyl)-ethyl)-1H-indazole-7-carboxamido)spiro[3.3]heptane-2-carboxylic acid]
EP2 [2]
  IC50: < 25 nM
EP4
  IC50: < 1 nM

## CC(c1ccc(-c2ccccc2)cc1)n1ccc2c(F)ccc(C(=O)NC3CC4(C3)CC(C(=O)O)C4)c21 (single isomer, unassigned) [Example 127, (Sa)-6-(1-((R) or (S)-1-([1,1′-biphenyl]-4-yl)-ethyl)-4-fluoro-1H-indole-7-carboxamido)spiro[3.3]heptane-2-carboxylic acid]
EP2 [2]
  IC50: < 25 nM
EP4
  IC50: 1.2 nM
